Reference: US10214546B2, “Btk inhibitors” (MERCK SHARP & DOHME CORP., priority 2014, dated 2019)
Where two headings read alike, the source gives them in different places.

Assays:
[1] = molecular target: BTK enzyme (recombinant full-length BTK, hBTK) (Homo sapiens (Human), UniProt Q06187); assay: BTK enzymatic activity LANCE TR-FRET assay; format: biochemical; conditions: 50 pM hBTK, 25 μM ATP, 2 μM biotin-A5-peptide; compound range 1 μM to 0.017 nM; read-out: BTK binding IC50
[2] = system: adenosine uptake into HeLa cells; assay: [3H]Adenosine uptake assay in HeLa cells; format: cell-based; conditions: [3H]adenosine accumulation in HeLa cells, compound range 10 μM to 0.032 nM, read-out: ADU inhibition IC50
In short: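 IC50 came from a 4-parameter fit of counts per second over a ten-point, 1:3 titration (final 10 µM down to […]). Compound was applied 30 min at ambient temperature in HBSS/5% FBS before a 500 nM [3H]adenosine solution was added; uptake ran 60 min, read by Cytostar-T proximity scintillation.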

Sequence of BTK enzyme (recombinant full-length BTK, hBTK) (Q06187 whole entry): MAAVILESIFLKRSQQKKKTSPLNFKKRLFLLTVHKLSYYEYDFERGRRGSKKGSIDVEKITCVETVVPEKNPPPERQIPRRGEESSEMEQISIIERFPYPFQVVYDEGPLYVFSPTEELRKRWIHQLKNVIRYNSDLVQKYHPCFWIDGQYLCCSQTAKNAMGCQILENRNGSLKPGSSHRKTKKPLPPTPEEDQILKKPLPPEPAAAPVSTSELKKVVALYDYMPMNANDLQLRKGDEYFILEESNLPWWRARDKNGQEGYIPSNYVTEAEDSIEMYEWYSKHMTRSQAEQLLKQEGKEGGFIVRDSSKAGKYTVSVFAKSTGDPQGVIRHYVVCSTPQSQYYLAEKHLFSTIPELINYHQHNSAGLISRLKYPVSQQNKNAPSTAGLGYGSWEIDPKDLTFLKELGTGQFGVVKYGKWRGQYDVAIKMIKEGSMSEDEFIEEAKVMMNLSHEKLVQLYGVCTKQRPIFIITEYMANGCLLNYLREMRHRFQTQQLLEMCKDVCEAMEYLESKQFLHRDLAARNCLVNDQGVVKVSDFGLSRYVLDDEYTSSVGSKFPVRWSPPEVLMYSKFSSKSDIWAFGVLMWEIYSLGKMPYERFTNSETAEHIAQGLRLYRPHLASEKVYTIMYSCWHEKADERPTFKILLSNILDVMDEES

Structure (SMILES) | IC50 [1] [nM] | IC50 ([2]; Homo sapiens, HeLa) [nM] | IC50 [2] [nM]
CC1(C)C[C@@H]2CC[C@@H](c3nc(-c4ccc([C@@](C)(O)c5cccc(C(F)F)c5)cc4)c4c(N)nccn34)CN2C1=O [Example 181, (6R,8aS)-6-[8-amino-1-(4-{(1R)-1-[3-(difluoromethyl)phenyl]-1-hydroxyethyl}phenyl)imidazo[1,5-a]pyrazin-3-yl]-2,2-dimethylhexahydroindolizin-3(2H)-one] | 0.2 | 3620 | 
C[C@@](O)(c1ccc(-c2nc([C@@H]3CC[C@H]4C(C(F)(F)F)CC(=O)N4C3)n3ccnc(N)c23)cc1)c1cccc(C(F)F)c1 (stereo partly drawn) [Example 182, (1R,6R,8aS)-6-[8-amino-1-(4-{(1R)-1-[3-(difluoromethyl)phenyl]-1-hydroxyethyl}phenyl)imidazo[1,5-a]pyrazin-3-yl]-1-(trifluoromethyl) hexahydroindolizin-3(2H)-one] | 0.43 | 2800 | 
CC(O)(c1cccc(C(F)(F)F)c1)c1ccc(-c2nc([C@@H]3CC[C@H]4CCC(=O)N4C3)n3c(F)cnc(N)c23)c(F)c1 (stereo partly drawn) [Example 183, (6R,8aS)-6-[8-amino-5-fluoro-1-(2-fluoro-4-{1-hydroxy-1-[3-(trifluoromethyl)phenyl]ethyl}phenyl)imidazo [1,5-a]pyrazin-3-yl]hexahydroindolizin-3(2H)-one] | 324 |  | 561
C[C@@](O)(c1ccc(-c2nc([C@@H]3CC[C@H]4C(C(F)(F)F)CC(=O)N4C3)n3ccnc(N)c23)cc1)c1cccc(C(F)F)c1 (stereo partly drawn) [Example 184, (1R,6R,8aS)-6-[8-amino-1-(4-{(1R)-1-[3-(difluoromethyl)phenyl]-1-hydroxyethyl}phenyl)imidazo[1,5-a]pyrazin-3-yl]-1-(trifluoromethyl) hexahydroindolizin-3(2H)-one] | 1.4 |  | 2660
CC(O)(c1cccc(C(F)(F)F)c1)c1ccc(-c2nc([C@@H]3CC[C@H]4CCC(=O)N4C3)n3c(F)cnc(N)c23)c(F)c1 (stereo partly drawn) [Example 185, (6R,8aS)-6-[8-amino-5-fluoro-1-(2-fluoro-4-{1-hydroxy-1-[3-(trifluoromethyl)phenyl]ethyl}phenyl)imidazo [1,5-a]pyrazin-3-yl]hexahydroindolizin-3(2H)-one] | 5 |  | 2390
CCOc1cc([C@@](C)(O)c2cccc(C(F)(F)F)c2)ccc1-c1nc([C@@H]2CC[C@@H]3N(C2)C(=O)CC3(C)C)n2ccnc(N)c12 [Example 186, (6R,8aS)-6-[8-amino-1-(2-ethoxy-4-{(1S)-1-hydroxy-1-[3-(trifluoromethyl)phenyl]ethyl}phenyl)imidazo [1,5-a]pyrazin-3-yl]-1,1-dimethylhexahydroindolizin-3(2H)-one] | 1.3 | 3080 | 
CC1(C)OC(=O)N2C[C@H](c3nc(-c4ccc([C@@](C)(O)c5cccc(C(F)F)c5)cc4)c4c(N)nccn34)OC[C@H]21 [Example 187, (6R,8aS)-6-[8-amino-1-(4-{(1R)-1-[3-(difluoromethyl)phenyl]-1-hydroxyethyl}phenyl)imidazo[1,5-a]pyrazin-3-yl]-1,1-dimethyltetrahydro-1H-[1,3]oxazolo[4.3-c][1,4]oxazin-3-one] | 2.8 | 2640 | 
C[C@@](O)(c1ccc(-c2nc([C@@H]3CC[C@@H]4N(C3)C(=O)CC43CC3)n3ccnc(N)c23)cc1)c1cccc(C(F)(F)F)c1 [Example 188, (6′R,8a′S)-6′-[8-amino-1-(4-{(1R)-1-hydroxy-1-[3-(trifluoromethyl)phenyl]ethyl}phenyl)imidazo [1,5-a]pyrazin-3-yl]tetrahydro-5′H-spiro[cyclopropane-1,1′-indolizin]-3′(2′H)-one] | 1.2 | 2500 | 
C[C@@](O)(c1ccc(-c2nc([C@@H]3CC[C@@H]4N(C3)C(=O)CC43CC3)n3ccnc(N)c23)cc1)c1cccc(C(F)F)c1 [Example 189, (6′R,8a′S)-6′-[8-amino-1-(4-{(1R)-1-[3-(difluoromethyl)phenyl]-1-hydroxyethyl}phenyl)imidazo[1,5-a]pyrazin-3-yl]tetrahydro-5′H-spiro[cyclopropane-1,1′-indolizin]-3′(2′H)-one] | 0.17 | 2080 | 
CC(O)(c1cccc(C(F)(F)F)c1)c1ccc(-c2nc([C@@H]3CC[C@H]4CCC(=O)N4C3)n3c(Cl)cnc(N)c23)c(F)c1 (stereo partly drawn) [Example 190, (6R,8aS)-6-[8-amino-5-chloro-1-(2-fluoro-4-{1-hydroxy-1-[3-(trifluoromethyl)phenyl]ethyl}phenyl)imidazo [1,5-a]pyrazin-3-yl]hexahydroindolizin-3(2H)-one] | 310 |  | 316
CC(O)(c1cccc(C(F)(F)F)c1)c1ccc(-c2nc([C@@H]3CC[C@@H]4N(C3)C(=O)CC4(C)C)n3ccnc(N)c23)c(F)c1 (stereo partly drawn) [Example 191, (6R,8aS)-6-[8-amino-1-(2-fluoro-4-{1-hydroxy-1-[3-(trifluoromethyl)phenyl]ethyl}phenyl)imidazo [1,5-a]pyrazin-3-yl]-1,1-dimethylhexahydroindolizin-3(2H)-one] | 36.9 |  | 431
CC(O)(c1cccc(C(F)F)c1)c1ccc(-c2nc([C@@H]3CC[C@H]4CCC(=O)N4C3)n3ccnc(N)c23)c(F)c1 (stereo partly drawn) [Example 192, (6R,8aS)-6-(8-amino-1-(4-{1-[3-(difluoromethyl)phenyl]-1-hydroxyethyl}-2-fluorophenyl)imidazo[1,5-a]pyrazin-3-yl]hexahydroindolizin-3(2H)-one] | 110 |  | 522
CC(O)(c1cccc(C(F)(F)F)c1)c1ccc(-c2nc([C@@H]3CC[C@H]4CCC(=O)N4C3)n3c(Cl)cnc(N)c23)c(F)c1 (stereo partly drawn) [Example 193, (6R,8aS)-6-[8-amino-5-chloro-1-(2-fluoro-4-{1-hydroxy-1-[3-(trifluoromethyl)phenyl]ethyl}phenyl)imidazo [1,5-a]pyrazin-3-yl]hexahydroindolizin-3(2H)-one] | 1.2 |  | 1860
CC(O)(c1cccc(C(F)(F)F)c1)c1ccc(-c2nc([C@@H]3CC[C@@H]4N(C3)C(=O)CC4(C)C)n3ccnc(N)c23)c(F)c1 (stereo partly drawn) [Example 194, (6R,8aS)-6-[8-amino-1-(2-fluoro-4-{1-hydroxy-1-[3-(trifluoromethyl)phenyl]ethyl}phenyl)imidazo [1,5-a]pyrazin-3-yl]-1,1-dimethylhexahydroindolizin-3(2H)-one] | 1.1 |  | 1300
CC(O)(c1cccc(C(F)F)c1)c1ccc(-c2nc([C@@H]3CC[C@H]4CCC(=O)N4C3)n3ccnc(N)c23)c(F)c1 (stereo partly shown) [Example 195] | 0.33 |  | 3500
CC1(C)C[C@@H]2CC[C@@H](c3nc(-c4ccc(C(C)(O)c5cccc(C(F)(F)F)c5)cc4F)c4c(N)nccn34)CN2C1=O (stereo partly drawn) [Example 196, (6R,8aS)-6-[8-amino-1-(2-fluoro-4-{1-hydroxy-1-[3-(trifluoromethyl)pheyl]ethyl}phenyl)imidazo [1,5-a)pyrazin-3-yl]-2,2-dimethylhexahydroindolizin-3(2H)-one] | 500 |  | 369
CC1(C)C[C@@H]2CC[C@@H](c3nc(-c4ccc(C(C)(O)c5cccc(C(F)(F)F)c5)cc4F)c4c(N)nccn34)CN2C1=O (stereo partly drawn) [Example 197, (6R,8aS)-6-[8-amino-1-(2-fluoro-4-{1-hydroxy-1-[3-(trifluoromethyl)phenyl]ethyl}phenyl)imidazo [1,5-a]pyrazin-3-yl]-2,2-dimethylhexahydroindolizin-3(2H)-one] | 2.5 |  | 3490
